Source: the SangsterLogP compilation

Columns and labels:
[1] = method code SF-AS, from DOI: 10.1021/jf00107a040
[2] = method code SF-GLC, from DOI: 10.1021/jf00107a040
[3] = method code SF-RC, from DOI: 10.1021/jf00107a040

Row | SMILES | logP [1] | other results
1 | NC(=O)Nc1ccc(Oc2ccccc2)cc1 | 2.8 | –
2 | CNC(=O)Nc1ccc(OC)c(Cl)c1 | 1.76 | –
3 | O=C(Nc1ccccc1)NC1CCCCCC1 | 2.95 | –
4 | CN(C)C(=O)Nc1cccc(C(F)(F)F)c1 | 2.42 | –
5 | CCCCOC(=O)Nc1ccccc1 | 3.3 | –
6 | COc1ccc(NC(=O)N(C)C)cc1 | 0.83 | –
7 | NC(=O)Nc1cccc(Cl)c1 | – | logP [2]: 1.82
8 | O=[N+]([O-])c1ccc(Br)cc1 | 2.6 | –
9 | NC(=O)Nc1ccc(F)cc1 | – | logP [2]: 1.04
10 | CC(C)OC(=O)Nc1ccccc1 | 2.6 | –
11 | Cc1ccc(NC(=O)N(C)C)cc1 | 1.33 | –
12 | O=C(Nc1ccccc1)NC1CCCCC1 | 2.77 | –
13 | NC(=O)Nc1cccc(Br)c1 | – | logP [2]: 2.08
14 | CNC(=O)ON=CC(C)(C)S(C)(=O)=O | – | logP [3]: -0.57
15 | COC(=O)Nc1ccc(Cl)c(Cl)c1 | – | logP [2]: 3.09
16 | NC(=O)Nc1cccc(F)c1 | – | logP [2]: 1.29
17 | CCCCCOC(=O)Nc1ccccc1 | 3.8 | –

Row | SMILES | logP [1] | other results
18 | Cc1cc(NC(=O)N(C)C)cc(C)c1Br | 2.92 | –
19 | NC(=O)Nc1ccc(Cl)c(Cl)c1 | – | logP [2]: 2.64
20 | CNC(=O)Nc1ccc(Cl)c(Cl)c1 | – | logP [2]: 2.94
21 | CON(C)C(=O)Nc1ccc(Br)c(Cl)c1 | 3.09 | –
22 | NC(=O)Nc1ccccc1F | – | logP [2]: 0.88
23 | Cc1cc(N)ccc1Br | 2.53 | –
24 | COc1ccc(NC(=O)N(C)C)cc1Cl | 1.64 | –
25 | CNC(=O)Nc1ccc(C)c(Cl)c1 | 2.61 | –
26 | NC(=O)Nc1ccccc1Cl | – | logP [2]: 1.27
27 | Cc1cc(C)cc(NC(=O)N(C)C)c1 | 1.9 | –
28 | NC(=O)Nc1cccc(C(F)(F)F)c1 | – | logP [2]: 2.31
29 | O=C(Nc1ccccc1)NC1CC1 | 1.65 | –
30 | Cc1ccc(NC(=O)N(C)C)cc1Cl | 2.41 | –
31 | NC(=O)Nc1ccc(Br)cc1 | – | logP [2]: 1.98
32 | COc1ccc(N)cc1Cl | – | logP [2]: 1.85
33 | O=C(Nc1ccccc1)NC1CCCC1 | 2.65 | –

Further lines, with some results ahead:

Row | logP [1] | SMILES | other results
34 | 2.02 | CC(=O)Nc1cccc(Cl)c1 | –
35 | 1.29 | Cc1cccc(NC(N)=O)c1 | –
36 | 1.13 | CN(C)C(=O)Nc1ccc(F)cc1 | –
37 | 2.49 | Cc1cc(NC(N)=O)ccc1Br | –
38 | 2.8 | CCCOC(=O)Nc1ccccc1 | –
39 | 1.37 | CN(C)C(=O)Nc1cccc(F)c1 | –
40 | 1.52 | CC(=O)Nc1cccc(C)c1 | –
41 | 2.04 | CC(=O)Nc1cccc(Br)c1 | –
42 | 2.01 | CN(C)C(=O)Nc1cccc(Cl)c1 | –
43 | 1.46 | CC(=O)Nc1cccc(F)c1 | –
44 | 1.37 | COc1ccc(NC(N)=O)cc1Cl | –
45 | 2.18 | CNC(=O)Nc1cccc(Cl)c1 | –
46 | 1.73 | COc1cccc(NC(=O)N(C)C)c1 | –
47 | 2.26 | CCOC(=O)Nc1ccccc1 | –
48 | 2.14 | CC(=O)Nc1ccc(Br)cc1 | –
49 | 1.17 | CNC(=O)Nc1ccccc1 | –
50 | 2.2 | CC(=O)Nc1cccc(C(F)(F)F)c1 | –
51 | 1.59 | Cc1cc(NC(N)=O)ccc1F | –
52 | 1.82 | COc1ccc(NC(C)=O)cc1Cl | –
